Assays:
HCT-116 = assay: Antiproliferative activity against human HCT116 cells incubated for 48 hrs by SRB assay; assay type: functional; details: HCT-116, 48 h
MDA-MB-231 = assay: Antiproliferative activity against human MDA-MB-231 cells incubated for 48 hrs by SRB assay; assay type: functional; details: MDA-MB-231, 48 h

O=C(Nc1cccnc1)c1ccc(CNC2=C(Cl)C(=O)c3ccccc3C2=O)cc1
GI50 (HCT-116): > 10 µM | GI50 (MDA-MB-231): > 10 µM

Source: ChEMBL document CHEMBL4130444, “1,4-Naphthoquinones as inhibitors of Itch, a HECT domain-E3 ligase, and tumor growth suppressors in multiple myeloma” (Eur J Med Chem, 2017)
